Assay results: patent US9339508B2, “Use of 3-methoxy-pregnenolone for the preparation of a drug for treating a traumatic brain injury” (MAPREG, priority 2003, dated 2016)

Experiments:
[1] = system: rats subjected to spinal cord compression; test: Spinal cord compression model, BBB score; assay type: in vivo, rat; details: 12 mg/kg/day subcutaneous for 2 weeks; as of post-operation day 7
Method: FIG. 7: Effect of molecule 43B on locomotor recovery following spinal cord compression in rats. Animal locomotion was evaluated in a blind format during the 1-28 day post-operative period using the BBB score which evaluates the degree of paralysis (higher values correspond to better recovery). Statistical significance: * indicates p<0.001; ** indicates p<0.0001.
To determine the neuroprotective effects of the molecules tested, a spinal cord compression model is used. This model involves the total paralysis of the animals in the first few days following the operation. This period of paralysis is followed of a phase of approximately three weeks during which the animals partially recover their motor function. The study of this recovery using a simple and precise functional test based on observation of the animals (the BBB score) makes it possible to study the speed and the degree of recovery of the animals, with and without treatment.
Two groups of rats were subjected to spinal cord compression. Then, daily for 2 weeks, the animals received a subcutaneous injection containing either sesame oil alone (control group, n=20), or sesame oil containing molecule 43B (43B group, n=20; 12 mg/kg/day). The first injection was given 5 minutes after spinal cord compression. Locomotion of the animals, using BBB scores, was evaluated in a blind format on post-operation days 1, 4, 7, 14, 21, and 28. […]

[2] = system: transgenic mice expressing the longest isoform of human tau protein; test: RotaRod motor incoordination in transgenic tau mice; assay type: in vivo, mouse; details: subcutaneous implant releasing 0.38 mg per day for 90 days
Excerpt: FIG. 8: Effect of molecule 43B on the motor incoordination of transgenic mice expressing the longest isoform of human tau protein in their neurons. […] The maximum speed of rotation of the RotaRod drum before the […] falls is a measurement of motor coordination (higher values correspond to a better treatment effect).
In order to evaluate the therapeutic potential of 433 to treat Alzheimer-type neurodegenerative diseases, a homozygous transgenic line of mice, such as described by Götz (EMBO J. 1995; 14(7):1304-13), can be used.
These mice express the longest human tau protein isoform. They present symptoms of neurological dysfunction expressed as muscular weakness and a reduction in motor coordination which correlate histologically with the appearance of abnormal neurites and hyperphosphorylated tau proteins as is seen in Alzheimer's disease. This pathological phosphorylation decreases the affinity of tau for microtubules and favors its aggregation.
A breeding program was undertaken at Bicêtre and genotyping made it possible to select mice homozygous for the transgene. […] The implants released 0.38 mg of steroid per day for 90 days. The progression of motor incoordination was followed by repeated RotaRod tests.

[3] = system: 80 different CNS neurotransmitters receptors; test: In vitro affinity screen on CNS receptors; assay type: binding; details: 10 μM; significant: inhibition higher than 50%
Excerpt: MAP4343 has been screened for in vitro affinity to 80 different CNS neurotransmitters receptors using various validated binding assays.

PC12 cell line = test: Cellular toxicity on the PC12 cell line; assay type: cell-based, rat; details: concentrations as high as solubility limits
Method: Cellular toxicity tests are carried out routinely on the PC12 cell line.

PC12 cells = test: Neuritic growth / sprouting of PC12 cells in the presence of NGF; assay type: cell-based, rat; details: increasing concentrations, 2, 5 and 8 days of culture, NGF 10 ng/ml
Method: Each molecule was tested in three culture wells. Measurements were taken for 200 cells per well using Scion Image software.
Neurite (neurite) length was measured for 200 cells per well after 2, 5, and 8 days of culture.
To rest the effect of selected molecules on neuritic growth, we first used the PC12 line, which has long been employed in neurobiological research. In the presence of NOF (nerve growth factor), the cells of this line, which arise from a rat pheochromocytoma, form neuritic extensions containing MAP-associated microtubules.
Stimulation of neuritic sprouting is conducted on PC12 cells differentiated in the presence of NGF (10 ng/ml) and the steroid being tested (30 μM) for 3 days. For each condition, the average length of the longest 200 neurites in each cell is measured simultaneously for 3 cultures.

[4] = Neurosteroids and 43B levels in rat plasma and hippocampus; details: 3 h after 10 mg/kg subcutaneously
CCI injured hippocampi = test: Histological analysis of the hippocampus size after CCI; assay type: in vivo, rat; details: day 35, 10 mg/kg and 20 mg/kg, first injection 2 h after TBI
Method: CCI was performed with an electromagnetic impact device as described (MyNeurolab, St. Louis, Mo.; Brody et al, 2007). Anesthesized rats were subjected to a single right lateral CCI, with the following parameters impact centered 4.0 mm anterior to lambda and 4.5 mm […] of midline, within the craniotomy of the animal. The impact was set at a velocity of 4 m/s with a sustained depression of 200 ms, using a 5.0 mm tip.
Frozen sections were stained with cresyl violet. For each section analyzed, the size of the hippocampus was determined by first outlining all remaining tissue of each section taken at 500 μm intervals through the lesion (right hemisphere) or contra lateral hemisphere, thus providing a total tissue area (mm2) of the two hemispheres for each section. Then, the areas of sections were summed per hemisphere.

## CO[C@H]1CC[C@@]2(C)C(=CC[C@H]3[C@@H]4CC[C@H](C(C)=O)[C@@]4(C)CC[C@@H]32)C1 [3-methoxy-PREG, 3β-methoxy-pregna-5-ene-20-one]
[1]
  locomotion, BBB score: quite significantly higher than the control animals
[2]
  motor dysfunction (RotaRod): beneficial effect on motor dysfunction
[3]
  affinity for tested CNS receptors: no significant affinity for any tested receptor
PC12 cell line
  cellular toxicity: do not demonstrate toxicity
PC12 cells
  increase in the length of neurites: ≤ 500%
[4]
  conversion to PREG or PROG: not converted back to PREG or metabolized to PROG
CCI injured hippocampi
  size of the injured hippocampus: significantly increases the size of the injured hippocampus
